From ChEMBL document CHEMBL5046247, “Hexahydroazulene-2(1H)-one Sesquiterpenoids with Bridged Cyclobutane, Oxetane, and Tetrahydrofuran Rings from the Stems of Daphne papyracea with α-Glycosidase Inhibitory Activity” (J Nat Prod, 2022)

assay: Inhibition of Saccharomyces cerevisiae alpha-glucosidase assessed as reduction in PNP formation using alpha-PNPG as substrate incubated for 30 mins by microplate reader assay

| Compound | IC50 |
| --- | --- |
| O=C(CCCCc1ccccc1)c1ccc(O)cc1 | 126 µM |
| CO[C@@H](CCc1ccccc1)CC(=O)c1ccccc1 | 145 µM |
| O=C(CC[C@H](O)C(=O)c1ccc(O)cc1)c1ccccc1 | 139 µM |

More lines, in order of falling IC50, values ahead:

| IC50 | Compound |
| --- | --- |
| 578 µM | C[C@H]1O[C@H](O[C@H]2[C@H](O)[C@@H](O)[C@@H](O[C@H]3[C@H](O)[C@@H](O)C(O)O[C@@H]3CO)O[C@@H]2CO)[C@H](O)[C@@H](O)[C@@H]1N[C@H]1C=C(CO)[C@@H](O)[C@H](O)[C@H]1O (some centres not stated) [ACARBOSE] |
| 159 µM | CC1=C2[C@@H](O)[C@@]3(C)CC(=O)[C@@]4(C)[C@]2(CC1=O)C[C@]43C |
| 102 µM | CC1=C2C[C@H](C(C)C)C[C@@H]3O[C@@]2(CC1=O)[C@@]3(C)O |
| 43.3 µM | O=C(/C=C/CCc1ccccc1)c1ccc(O)cc1 |
